By IC50 is commonly meant the point on the concentration scale where inhibition reaches its midpoint. Read a high IC50 as a need for much substance.

Consider three molecules from ChEMBL document CHEMBL1126565, “Three-dimensional QSAR of human immunodeficiency virus (I) protease inhibitors. 1. A CoMFA study employing experimentally-determined alignment rules” (J Med Chem, 1993).

Starred links: 1 amine or outer side, 2 acyl side, 3 side chain; linkers in the order of their positions; H or OH if unused. Non-standard residues stand in square brackets, D forms with d. Residues, ends and D or L forms follow the SMILES beside them. Phe(ψ(S)CH(OH)CH2N)Pro = O=C([C@@H]1CCCN1C[C@H](O)[C@H](Cc1ccccc1)N[*:1])[*:2]

For the assay, the target named is Human immunodeficiency virus type 1 protease (Human immunodeficiency virus 1, UniProt Q72874). The experiment in a line: Inhibitory potency against HIV-1 protease.
The molecule `COC(=O)[C@@H](NC(=O)[C@H](CC(C)C)NC(=O)[C@@H]1CCCN1C[C@H](O)[C@H](Cc1ccccc1)NC(=O)[C@H](CC(N)=O)NC(=O)[C@H](CC(C)C)NC(=O)[C@H](CO)NC(C)=O)C(C)C` (Ac-SLN[Phe(ψ(S)CH(OH)CH2N)Pro]LV-OMe) gave a concentration for half-maximal inhibition (IC50) of 65 nM.

As for `CC(C)(C)OC(=O)[C@@H]1CCCN1C[C@H](O)[C@H](Cc1ccccc1)NC(=O)[C@H](CC(N)=O)NC(=O)c1ccc2ccccc2n1`, the IC50 was 23 nM.

Molecule `CC(C)(C)N(C[C@@H](O)[C@H](Cc1ccccc1)NC(=O)[C@H](CC(N)=O)NC(=O)c1ccc2ccccc2n1)C(=O)NCc1ccncc1` had a 50% inhibitory concentration (IC50) of 19 nM.
